Source: patent publication US8835428B2, “Diacylglycerol acyltransferase inhibitors” (Piramal Enterprises Limited, priority 2008, dated 2014)

What follows are molecules tested against T1, hDGAT1 (Homo sapiens, UniProt O75907) (assay: In-vitro DGAT1 assay (hDGAT1 microsomes from Sf9 cells, 14C oleoyl CoA, triglyceride formation)). Settings: At 1 μM.
T1 construct: host or cells: Sf9 insect cells (baculovirus); microsomal preparation
T1 sequence (O75907 1-488): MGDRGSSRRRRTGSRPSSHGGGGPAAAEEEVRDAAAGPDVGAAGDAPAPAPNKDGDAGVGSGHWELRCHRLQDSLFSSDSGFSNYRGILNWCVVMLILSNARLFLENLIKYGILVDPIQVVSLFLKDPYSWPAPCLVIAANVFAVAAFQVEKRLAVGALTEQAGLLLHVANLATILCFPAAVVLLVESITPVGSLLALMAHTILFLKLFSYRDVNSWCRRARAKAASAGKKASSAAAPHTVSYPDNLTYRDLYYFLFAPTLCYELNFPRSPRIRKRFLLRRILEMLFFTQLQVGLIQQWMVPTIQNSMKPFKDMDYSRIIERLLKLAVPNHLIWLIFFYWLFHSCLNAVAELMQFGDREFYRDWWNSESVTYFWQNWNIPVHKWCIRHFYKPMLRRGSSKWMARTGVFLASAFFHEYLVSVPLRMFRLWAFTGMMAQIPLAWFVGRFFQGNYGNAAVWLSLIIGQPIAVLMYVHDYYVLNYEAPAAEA
Assay type: biochemical
In short: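 Compounds tested in duplicate at 10, 5 and 1 μM for 10 min at 37 °C. Reaction: Sf9-expressed hDGAT1 microsomes (2.5–10 μg), [14C]oleoyl-CoA plus 409.5–1638 μM dioleoylglycerol, pH 7.4 Tris-HCl with fatty-acid-free BSA. Radiolabelled triglyceride extracted into heptane and scintillation-counted.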

SMILES | inhibition at 1 µM [%]
CC(C)[C@H](NC(=O)c1cc(-c2ccc(NC(=O)Nc3cc(C(F)(F)F)ccc3Cl)cc2)no1)C(=O)O [Example 211, (S)-2-(3-(4-(3-(2-chloro-5-(trifluoromethyl)phenyl)ureido)phenyl)isoxazole-5-carboxamido)-3-methylbutanoic acid] | 75 to 100
CC(C)[C@H](NC(=O)c1cc(-c2ccc(NC(=O)Nc3ccc(F)cc3C(F)(F)F)cc2)no1)C(=O)O [Example 213, (S)-2-(3-(4-(3-(4-fluoro-2-(trifluoromethyl)phenyl)ureido)phenyl)isoxazole-5-carboxamido)-3-methylbutanoic acid] | 50 to 75
CC(C)[C@H](NC(=O)c1cc(-c2ccc(NC(=O)Nc3ccc(Cl)cc3C(F)(F)F)cc2)no1)C(=O)O [Example 215, (S)-2-(3-(4-(3-(4-chloro-2-(trifluoromethyl)phenyl)ureido)phenyl)isoxazole-5-carboxamido)-3-methylbutanoic acid] | 75 to 100
COC(=O)[C@H](NC(=O)c1cc(-c2ccc(NC(=O)Nc3ccccc3C#N)cc2)no1)C(C)C [Example 216, (R)-methyl 2-(3-(4-(3-(2-cyanophenyl)ureido)phenyl)isoxazole-5-carboxamido)-3-methylbutanoate] | 0 to 50
CC(C)[C@@H](NC(=O)c1cc(-c2ccc(NC(=O)Nc3cccc(C#N)c3)cc2)no1)C(=O)O [Example 217, (R)-2-(3-(4-(3-(3-cyanophenyl)ureido)phenyl)isoxazole-5-carboxamido)-3-methylbutanoic acid] | 50 to 75
COC(=O)[C@H](NC(=O)c1cc(-c2ccc(NC(=O)Nc3ccc(C#N)cc3)cc2)no1)C(C)C [Example 218, (R)-methyl 2-(3-(4-(3-(4-cyanophenyl)ureido)phenyl)isoxazole-5-carboxamido)-3-methylbutanoate] | 0 to 50
CC(C)[C@@H](NC(=O)c1cc(-c2ccc(NC(=O)Nc3ccc(C#N)cc3)cc2)no1)C(=O)O [Example 219, (R)-2-(3-(4-(3-(4-Cyanophenyl)ureido)phenyl)isoxazole-5-carboxamido)-3-methylbutanoic acid] | 50 to 75
COC(=O)[C@H](NC(=O)c1cc(-c2ccc(NC(=O)Nc3ccccc3Cl)cc2)no1)C(C)C [Example 220, (R)-Methyl 2-(3-(4-(3-(2-chlorophenyl)ureido)phenyl)isoxazole-5-carboxamido)-3-methylbutanoate] | 0 to 50
CC(C)[C@@H](NC(=O)c1cc(-c2ccc(NC(=O)Nc3ccccc3Cl)cc2)no1)C(=O)O [Example 221, (R)-2-(3-(4-(3-(2-Chlorophenyl)ureido)phenyl)isoxazole-5-carboxamido)-3-methylbutanoic acid] | 75 to 100
COC(=O)[C@H](NC(=S)c1cc(-c2ccc(NC(=O)Nc3ccc(C)cc3)cc2)no1)C(C)C [Example 223, (R)-Methyl 3-methyl-2-(3-(4-(3-p-tolylureido)phenyl)isoxazole-5-carbothioamido)butanoate] | 0 to 50
CCS/C(=N\[C@@H](C(=O)OC)C(C)C)c1cc(-c2ccc(NC(=O)Nc3ccccc3F)cc2)no1 [Example 224, (R,Z)-Methyl 2-(ethylthio(3-(4-(3-(2-fluorophenyl)ureido)phenyl)isoxazol-5-yl)methyleneamino)-3-methylbutanoate] | 0 to 50
CCS/C(=N\[C@@H](C(=O)OC)C(C)C)c1cc(-c2ccc(NC(=O)Nc3ccc(C)cc3)cc2)no1 [Example 225, (R,Z)-Methyl 2-(ethylthio(3-(4-(3-p-tolylureido)phenyl)isoxazol-5-yl)methyleneamino)-3-methylbutanoate] | 0 to 50
CC(C)[C@@H](N/C(=N/O)c1cc(-c2ccc(NC(=O)Nc3ccccc3F)cc2)no1)C(=O)O [Example 226, (R,E)-2-(3-(4-(3-(2-Fluorophenyl)ureido)phenyl)-N′-hydroxyisoxazole-5-carboximidamido)-3-methylbutanoic acid] | 0 to 50
CC(C)c1ccc(NC(=O)Nc2ccc(-c3cc(C(=O)N[C@H](C(=O)O)C(C)C)on3)cc2)cc1 [Example 228, (S)-2-(3-(4-(3-(4-Isopropylphenyl)ureido)phenyl)isoxazole-5-carboxamido)-3-methylbutanoic acid] | 75 to 100
CC(C)[C@H](NC(=O)c1cc(-c2ccc(NC(=O)Nc3c(F)cccc3C(F)(F)F)cc2)no1)C(=O)O [Example 230, (S)-2-(3-(4-(3-(2-Fluoro-6-(trifluoromethyl)phenyl)ureido)phenyl)isoxazole-5-carboxamido)-3-methylbutanoic acid] | 0 to 50
CC(C)[C@H](NC(=O)c1cc(-c2ccc(NC(=O)Nc3ccc(C(F)(F)F)cc3Cl)cc2)no1)C(=O)O [Example 232, (S)-2-(3-(4-(3-(2-Chloro-4-(trifluoromethyl)phenyl)ureido)phenyl)isoxazole-5-carboxamido)-3-methylbutanoic acid] | 75 to 100
CC(C)[C@H](NC(=O)c1cc(-c2ccc(NC(=O)Nc3c(Cl)cccc3C(F)(F)F)cc2)no1)C(=O)O [Example 234, (S)-2-(3-(4-(3-(2-Chloro-6-(trifluoromethyl)phenyl)ureido)phenyl)isoxazole-5-carboxamido)-3-methylbutanoic acid] | 0 to 50
CC(C)[C@H](NC(=O)c1cc(-c2ccc(NC(=O)Nc3cc(Cl)ccc3Oc3ccccc3)cc2)no1)C(=O)O [Example 236, (S)-2-(3-(4-(3-(5-Chloro-2-phenoxyphenyl)ureido)phenyl)isoxazole-5-carboxamido)-3-methylbutanoic acid] | 75 to 100
CC(C)[C@H](NC(=O)c1cc(-c2ccc(NC(=O)Nc3ccccc3Oc3ccccc3)cc2)no1)C(=O)O [Example 238, (S)-3-Methyl-2-(3-(4-(3-(2-phenoxyphenyl)ureido)phenyl)isoxazole-5-carboxamido)butanoic acid] | 75 to 100
CC(C)[C@H](NC(=O)c1cc(-c2ccc(NC(=O)Nc3ccc(Oc4ccccc4)cc3)cc2)no1)C(=O)O [Example 240, (S)-3-Methyl-2-(3-(4-(3-(4-phenoxyphenyl)ureido)phenyl)isoxazole-5-carboxamido)butanoic acid] | 75 to 100
Cc1ccc(NC(=O)Nc2ccc(-c3cc(C(=O)NC(C(=O)O)C(C)C)on3)cc2)cc1Cl (stereo not shown) [Example 248, 2-(3-(4-(3-(3-Chloro-4-methylphenyl)ureido)phenyl)isoxazole-5-carboxamido)-3-methylbutanoic acid] | 75 to 100
Cc1ccc(NC(=O)Nc2ccc(-c3cc(C(=O)NC(C(=O)O)C(C)C)on3)cc2)cc1F (stereo not shown) [Example 250, 2-(3-(4-(3-(3-Fluoro-4-methylphenyl)ureido)phenyl)isoxazole-5-carboxamido)-3-methylbutanoic acid] | 75 to 100
Cc1ccc(F)cc1NC(=O)Nc1ccc(-c2cc(C(=O)NC(C(=O)O)C(C)C)on2)cc1 (stereo not shown) [Example 252, 2-(3-(4-(3-(5-Fluoro-2-methylphenyl)ureido)phenyl)isoxazole-5-carboxamido)-3-methylbutanoic acid] | 75 to 100

Same assay, conditions: At 5 μM

SMILES | inhibition at 5 µM [%] | % inhibition of hDGAT1
COC(=O)[C@H](NC(=S)c1cc(-c2ccc(NC(=O)Nc3ccccc3F)cc2)no1)C(C)C [Example 222, (R)-Methyl 2-(3-(4-(3-(2-fluorophenyl)ureido)phenyl)isoxazole-5-carbothioamido)-3-methylbutanoate] | 50 to 75 | –
COC(=O)C(Cc1ccccc1)NC(=O)c1cc(-c2ccc(NC(=O)Nc3ccccc3F)cc2)no1 (stereo not shown) [Example 241, Methyl 2-(3-(4-(3-(2-fluorophenyl)ureido)phenyl)isoxazole-5-carboxamido)-3-phenylpropanoate] | 0 to 50 | –
O=C(Nc1ccc(-c2cc(C(=O)NC(Cc3ccccc3)C(=O)O)on2)cc1)Nc1ccccc1F (stereo not shown) [Example 242, 2-(3-(4-(3-(2-Fluorophenyl)ureido)phenyl)isoxazole-5-carboxamido)-3-phenylpropanoic acid] | 50 to 75 | –
COC(=O)C(Cc1ccccc1)NC(=O)c1cc(-c2ccc(NC(=O)Nc3ccc(C)cc3)cc2)no1 (stereo not shown) [Example 243, Methyl 3-phenyl-2-(3-(4-(3-p-tolylureido)phenyl)isoxazole-5-carboxamido) propanoate] | – | + (>0% Inhibition ≦50)
Cc1ccc(NC(=O)Nc2ccc(-c3cc(C(=O)NC(Cc4ccccc4)C(=O)O)on3)cc2)cc1 (stereo not shown) [Example 244, 3-Phenyl-2-(3-(4-(3-p-tolylureido)phenyl)isoxazole-5-carboxamido) propanoic acid] | 50 to 75 | –
COC(=O)C(Cc1ccccc1)NC(=O)c1cc(-c2ccc(NC(=O)Nc3ccc(F)cc3F)cc2)no1 (stereo not shown) [Example 245, Methyl 2-(3-(4-(3-(2,4-difluorophenyl)ureido)phenyl)isoxazole-5-carboxamido)-3-phenylpropanoate] | 0 to 50 | –
O=C(Nc1ccc(-c2cc(C(=O)NC(Cc3ccccc3)C(=O)O)on2)cc1)Nc1ccc(F)cc1F (stereo not shown) [Example 246, 2-(3-(4-(3-(2,4-Difluorophenyl)ureido)phenyl)isoxazole-5-carboxamido)-3-phenylpropanoic acid] | 50 to 75 | –
COC(=O)CCCNC(=O)c1cc(-c2ccc(NC(=O)Nc3ccccc3F)cc2)no1 [Example 253, Methyl 4-(3-(4-(3-(2-fluorophenyl)ureido)phenyl)isoxazole-5-carboxamido)butanoate] | 0 to 50 | –
